Assay results reported in patent US10851082B2, “Substituted aromatic n-heterocyclic compounds as inhibitors of mitogen-activated protein kinase interacting kinase 1 (MNK1) and 2 (MNK2)” (Northwestern University, priority 2015, dated 2020).
Read-outs that look alike come from different tables or passages of the source.

What was measured:
Mnk1 = Mnk1 (Homo sapiens (Human), UniProt Q9BUB5); test: Mnk1 kinase inhibition, ADP-Glo ADP monitoring assay; assay type: biochemical; details: for IC50: read-out: Mnk1 IC50
Protocol: (§1) The synthesized compounds then were tested for inhibition of the kinase activity (IC50) of Mnk1 and/or Mnk2 using the ADP monitoring assay for kinases described in Zegzouti, H.; Zdanovskaia, M.; Hsiao, K.; Goueli, S. A., ADP-Glo: A Bioluminescent and homogeneous ADP monitoring assay for kinases.

Mnk2 = Mnk2 (Homo sapiens (Human), UniProt Q9HBH9); test: Mnk2 kinase inhibition, ADP-Glo ADP monitoring assay; assay type: biochemical; details: ADP-Glo kinase assay
Protocol: as §1

[1] = read-out: Mnk2 inhibition IC50 (+,++,+++)

Mnk2, sequence (Q9HBH9 whole entry): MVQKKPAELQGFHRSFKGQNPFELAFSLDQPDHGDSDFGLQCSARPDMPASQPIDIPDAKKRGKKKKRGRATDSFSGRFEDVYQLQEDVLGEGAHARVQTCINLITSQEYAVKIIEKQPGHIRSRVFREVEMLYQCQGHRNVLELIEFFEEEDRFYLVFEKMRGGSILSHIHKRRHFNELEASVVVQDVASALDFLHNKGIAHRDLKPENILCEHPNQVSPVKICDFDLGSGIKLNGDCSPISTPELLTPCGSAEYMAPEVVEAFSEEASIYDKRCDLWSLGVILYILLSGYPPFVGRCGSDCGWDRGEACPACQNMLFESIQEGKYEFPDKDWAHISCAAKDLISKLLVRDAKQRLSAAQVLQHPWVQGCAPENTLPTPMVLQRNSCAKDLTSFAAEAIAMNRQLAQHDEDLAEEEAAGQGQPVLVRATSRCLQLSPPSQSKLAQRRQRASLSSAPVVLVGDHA
Mnk1, sequence (Q9BUB5 whole entry): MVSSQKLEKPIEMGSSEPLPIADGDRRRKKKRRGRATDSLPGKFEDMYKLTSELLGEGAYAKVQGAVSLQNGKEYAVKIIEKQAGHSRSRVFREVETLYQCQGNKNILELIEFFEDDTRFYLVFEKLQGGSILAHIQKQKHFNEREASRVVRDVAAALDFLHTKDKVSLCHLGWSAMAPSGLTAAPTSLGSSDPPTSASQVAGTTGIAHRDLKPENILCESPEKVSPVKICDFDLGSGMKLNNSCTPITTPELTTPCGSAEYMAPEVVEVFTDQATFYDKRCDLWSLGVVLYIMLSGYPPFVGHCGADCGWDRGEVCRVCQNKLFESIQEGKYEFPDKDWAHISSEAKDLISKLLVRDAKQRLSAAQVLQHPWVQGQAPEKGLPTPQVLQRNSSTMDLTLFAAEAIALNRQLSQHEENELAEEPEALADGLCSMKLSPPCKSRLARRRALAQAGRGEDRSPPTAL

Row | IC50 (Mnk1) | IC50 (Mnk2; read-out: Mnk2 IC50) | Compound | further results
1 | 9000 nM | – | CCNc1nccc(-c2cnn(-c3cccc(OC)c3)c2)n1 [NUCC-0054132] | –
2 | 6000 nM | – | Clc1cccc(-n2cc(-c3ccnc(NCc4ccncc4)n3)cn2)c1 [NUCC-0054134] | –
3 | 12000 nM | – | COc1cccc(-n2cc(-c3ccnc(NCCN4CCOCC4)n3)cn2)c1 [NUCC-0054138] | –
4 | 6000 nM | 16000 nM | CCCn1ncc(-c2ccnc(NCc3nccn3CC)n2)c1C [NUCC-0054147] | –
5 | 4000 nM | – | Cn1cc(-c2ccnc(NCCN3CCOCC3)n2)cn1 [NUCC-0060894] | –
6 | 5000 nM | – | Cn1cc(-c2ccnc(NCCCN3CCCCC3)n2)cn1 [NUCC-0060895] | –
7 | 3000 nM | 3400 nM | Cn1cc(-c2ccnc(N3CCC[C@H]3CO)n2)cn1 [NUCC-0060896] | –
8 | 9000 nM | – | Cn1cc(-c2ccnc(NCc3ccc(F)cc3)n2)cn1 [NUCC-0060897] | –
9 | 9000 nM | – | c1ccc2c(c1)ccn2-c1ccnc(NCCN2CCOCC2)n1 [NUCC-0060953] | –
10 | 16000 nM | 5000 nM | c1ccc2c(c1)ccn2-c1ccnc(NCCc2cnc[nH]2)n1 [NUCC-0060955] | –
11 | 1000 nM | – | c1ccc2c(c1)ncn2-c1ccnc(NCCN2CCOCC2)n1 [NUCC-0060956] | –
12 | 90000 nM | – | c1cc(CNc2nccc(-c3cnn(C4CCOCC4)c3)n2)ccn1 [NUCC-0060959] | –
13 | 30000 nM | – | c1ccc(-n2cc(-c3ccnc(NCCc4c[nH]cn4)n3)cn2)cc1 [NUCC-0060965] | –
14 | 70000 nM | – | c1cc(CCNc2nccc(-c3cnn(CCN4CCOCC4)c3)n2)ccn1 [NUCC-0060970] | –
15 | 19000 nM | – | c1ccc(Cn2cc(-c3ccnc(NCCc4c[nH]cn4)n3)cn2)cc1 [NUCC-0060971] | –
16 | 19000 nM | 2500 nM | c1ccc(Cn2cc(-c3ccnc(NCCc4ccncc4)n3)cn2)cc1 [NUCC-0060972] | –
17 | 28000 nM | – | COc1cccc(-n2cc(-c3ccnc(NCCCN4CCOCC4)n3)cn2)c1 [NUCC-0077154, 4-(1-(3-methoxyphenyl)-1H-pyrazol-4-yl)-N-(3-morpholinopropyl)pyrimidin-2-amine] | –
18 | 21000 nM | – | COc1cccc(-n2cc(-c3ccnc(NCc4ccccc4)n3)cn2)c1 [NUCC-0077155] | –
19 | 8000 nM | – | COc1cccc(-n2cc(-c3ccnc(NCc4ccncc4)n3)cn2)c1 [NUCC-0077163] | –
20 | 6000 nM | – | COc1cccc(-n2cc(-c3ccnc(NC4CCNCC4)n3)cn2)c1 [NUCC-0077164] | –
21 | 6000 nM | – | COc1cccc(-n2cc(-c3ccnc(NC4CCOC4)n3)cn2)c1 (stereo not shown) [NUCC-0077165] | –
22 | 4000 nM | – | COc1cccc(-n2cc(-c3ccnc(NCCN(C)C)n3)cn2)c1 [NUCC-0077166] | –
23 | 19000 nM | – | COc1cccc(-n2cc(-c3ccnc(Nc4ccncc4)n3)cn2)c1 [NUCC-0077168] | –
24 | 500 nM | 48 nM | CN(C)CCNc1nccc(-n2cnc3ccccc32)n1 [NUCC-0125582] | –

Row | IC50 (Mnk1) | IC50 (Mnk2; read-out: Mnk2 IC50) | Compound | further results
25 | 1400 nM | – | c1ccc2c(c1)ncn2-c1ccnc(NC2CCNCC2)n1 [NUCC-0125584] | –
26 | 500 nM | – | c1ccc2c(c1)ncn2-c1ccnc(NCc2ccncc2)n1 [NUCC-0125586] | –
27 | 500 nM | – | CN1CCN(c2ccc(Nc3nccc(-n4cnc5ccccc54)n3)cc2)CC1 [NUCC-0125587] | –
28 | 200 nM | – | c1ccc2c(c1)ncn2-c1ccnc(Nc2ccc(N3CCCCC3)cc2)n1 [NUCC-0125588] | –
29 | 6000 nM | 780 nM | COc1cccc(-n2cc(-c3ccnc(NC4CCNC4)n3)cn2)c1 (stereo not shown) [NUCC-0125590] | –
30 | 21000 nM | – | COc1cccc(-n2cc(-c3ccnc(NC4CCOCC4)n3)cn2)c1 [NUCC-0125591] | –
31 | 650 nM | 39 nM | c1ccc2c(c1)ncn2-c1ccnc(Nc2ccc(-n3cccn3)cc2)n1 [NUCC-0125593] | –
32 | 200 nM | 34 nM | CNC(=O)c1ccc(Nc2nccc(-n3cnc4ccccc43)n2)cc1 [NUCC-0125596] | –
33 | 6000 nM | – | O=C(c1ccc(Nc2nccc(-n3cnc4ccccc43)n2)cc1)N1CCNCC1 [NUCC-0125597] | –
34 | 5000 nM | 1800 nM | COc1cnc(NCCc2ccncc2)nc1-n1cnc2ccccc21 [NUCC-0175698] | –
35 | 1200 nM | 250 nM | c1ccc2c(c1)NCCN2c1ccnc(NCCc2ccncc2)n1 [NUCC-0175722] | –
36 | 8500 nM | 6000 nM | c1cnc2ncn(-c3ccnc(NCCc4ccncc4)n3)c2c1 [NUCC-0176138] | –
37 | 13000 nM | 5300 nM | c1cnc2ncn(-c3ccnc(NC4CCOC4)n3)c2c1 (stereo not shown) [NUCC-0176142] | –
38 | 4300 nM | 1100 nM | c1cc(CCNc2nccc(-n3cnc4cnccc43)n2)ccn1 [NUCC-0176143] | –
39 | 400 nM | 52 nM | OC1CCC(Nc2nccc(-n3cnc4ccccc43)n2)CC1 (stereo not shown) [NUCC-0176145] | –
40 | 12000 nM | 1000 nM | c1ccc2c(c1)ncn2-c1ccnc(NN2CCOCC2)n1 [NUCC-0176146] | –
41 | 450 nM | 82 nM | OC1CCCC1Nc1nccc(-n2cnc3ccccc32)n1 (stereo not shown) [NUCC-0176147] | –
42 | – | 94 nM | c1ccc2c(c1)ncn2-c1ccnc(N[C@@H]2CCOC2)n1 [NUCC-0176149] | –
43 | 420 nM | 90 nM | c1ccc2c(c1)ncn2-c1ccnc(NC2COC2)n1 [NUCC-0176150] | –
44 | 390 nM | 44 nM | c1ccc2c(c1)ncn2-c1ccnc(NC2CCCOC2)n1 (stereo not shown) [NUCC-0176151] | –
45 | 1600 nM | 1300 nM | c1cc2c(cn1)ncn2-c1ccnc(NC2CCOC2)n1 (stereo not shown) [NUCC-0176152] | –
46 | 480 nM | 81 nM | COC1CCC(Nc2nccc(-n3cnc4ccccc43)n2)CC1 (stereo not shown) [NUCC-0176153] | –
47 | 390 nM | 63 nM | OC1CCC(Nc2nccc(-n3cnc4ccccc43)n2)CC1 (stereo not shown) [NUCC-0176166] | –
48 | 300 nM | 60 nM | COC1CCC(Nc2nccc(-n3cnc4ccccc43)n2)CC1 (stereo not shown) [NUCC-0176167] | –

Row | IC50 (Mnk1) | IC50 (Mnk2; read-out: Mnk2 IC50) | Compound | further results
49 | 5100 nM | 3500 nM | c1ccc2c(c1)OCCN2c1ccnc(NCCc2ccncc2)n1 [NUCC-0176230] | –
50 | 8500 nM | 4700 nM | c1ccc2c(c1)CCN2c1ccnc(NCCc2ccncc2)n1 [NUCC-0176233] | –
51 | 8700 nM | 10000 nM | Fc1cnc(NCCc2ccncc2)nc1-n1ccc2ccccc21 [NUCC-0176283] | –
52 | 2600 nM | 1200 nM | c1ccc2c(c1)ncn2-c1cc(NCCc2ccncc2)ncn1 [NUCC-0176284] | –
53 | 4700 nM | 6000 nM | c1ccc2c(c1)ccn2-c1cc(NCCc2ccncc2)ncn1 [NUCC-0176285] | –
54 | – | – | c1ccc2c(c1)ncn2-c1cc(NCCc2ccncc2)cnn1 [NUCC-0176338] | Mnk1 IC50 (Mnk1): no activity; Mnk2 IC50 (Mnk2): no activity
55 | 11000 nM | 10000 nM | c1ccc2c(c1)c1ccccc1n2-c1ccnc(NCCc2ccncc2)n1 [NUCC-0176339] | –
56 | 550 nM | 69 nM | c1cncc(CCNc2nccc(-n3cnc4ccccc43)n2)c1 [NUCC-0176340] | –
57 | 1600 nM | 200 nM | COCCNc1nccc(-n2cnc3ccccc32)n1 [NUCC-0176342] | –
58 | 7200 nM | 780 nM | O=C1CCCN1CCCNc1nccc(-n2cnc3ccccc32)n1 [NUCC-0176344] | –
59 | 5400 nM | 4700 nM | c1ccc2c(c1)cnn2-c1ccnc(NCCc2ccncc2)n1 [NUCC-0176346] | –
60 | 8100 nM | 5600 nM | c1ccc2c(c1)cnn2-c1nccc(NCCc2ccncc2)n1 [NUCC-0176347] | –
61 | 710 nM | 130 nM | CC(O)CNc1ccnc(-n2cnc3ccccc32)n1 (stereo not shown) [NUCC-0176348] | –
62 | 4100 nM | 1400 nM | Nc1ccnc(-n2cnc3ccccc32)n1 [NUCC-0176349] | –
63 | – | – | O=c1c2ccccc2nnn1-c1ccnc(NCCc2ccncc2)n1 [NUCC-0176350] | Mnk1 IC50 (Mnk1): no activity; Mnk2 IC50 (Mnk2): no activity
64 | – | – | O=C(Nc1ccccc1)Nc1nccc(-n2cnc3ccccc32)n1 [NUCC-0176351] | Mnk1 IC50 (Mnk1): no activity; Mnk2 IC50 (Mnk2): no activity
65 | 650 nM | 170 nM | OCCNc1nccc(-n2cnc3ccccc32)n1 [NUCC-0176352] | –
66 | 9500 nM | 6800 nM | O=c1oc2ccccc2n1-c1ccnc(NCCc2ccncc2)n1 [NUCC-0176353] | –
67 | – | – | Brc1cnc(NCCc2ccncc2)nc1-n1ccnc1 [NUCC-0196229] | IC50 (Mnk2; unit inferred, read-out: Mnk2 IC50): 1200 nM
68 | – | – | OC1CCN(c2ncc(Cl)c(-n3cnc4ccccc43)n2)CC1 [NUCC-0200781] | IC50 (Mnk2; [1]): < 1000 nM
69 | – | – | N#Cc1cnc(-n2cnc3ccccc32)nc1NCCCc1ccncc1 [NUCC-0200914] | IC50 (Mnk2; [1]): < 1000 nM
70 | – | – | NC1CC(Oc2ncc(-c3ccccc3OC(F)(F)F)c(-n3cnc4ccccc43)n2)C1 (stereo not shown) [NUCC-0201898, 3-((4-(1H-benzo[d]imidazol-1-yl)-5-(2-(trifluoromethoxy)phenyl)pyrimidin-2-yl)oxy)cyclobutan-1-amine] | IC50 (Mnk2; [1]): < 1000 nM

Row | Compound | IC50 (Mnk1) | IC50 (Mnk2; read-out: Mnk2 IC50) | further results
71 | COc1cccc(-n2cc(-c3ccnc(NCCc4c[nH]cn4)n3)cn2)c1 [NUCC-0054133] | 7000 nM | 1800 nM | –
72 | c1ccc(Cn2cc(-c3ccnc(NCCc4c[nH]cn4)c3)cn2)cc1 [NUCC-0077167] | 8000 nM | 7600 nM | –
73 | NC(=O)c1ccc(Nc2nccc(-n3cnc4ccccc43)n2)cc1 [NUCC-0125594] | 700 nM | 30 nM | –
74 | c1ccc2c(c1)ncn2-c1ccnc(NC2CCOCC2)n1 [NUCC-0125595] | 500 nM | 83 nM | –
75 | COc1cccc(-c2cn(-c3ccnc(NCCc4c[nH]cn4)n3)c3ccccc23)c1 [NUCC-0125599] | 29000 nM | 6200 nM | –
76 | COc1cccc(-n2cc(-c3ccnc(NCCc4ccncc4)c3)cn2)c1 [NUCC-0125601] | 5000 nM | 1700 nM | –
77 | O[C@@H]1CC[C@@H](Nc2nccc(-n3cnc4ccccc43)n2)C1 [NUCC-0176165] | 340 nM | 61 nM | –
78 | c1ccc2c(c1)CCN2c1ccnc(N[C@H]2CCOC2)n1 [NUCC-0176231] | 1100 nM | 380 nM | –
79 | c1ccc2c(c1)CCN2c1ccnc(N[C@@H]2CCOC2)n1 [NUCC-0176232] | 4600 nM | 2300 nM | –
80 | O=C1CCCN1CCCNc1ccnc(-n2cnc3ccccc32)n1 [NUCC-0176345] | 10000 nM | 2600 nM | –
